Data on 3 molecules can be found in patent US12024736B2, “Method for detecting l-serine based on Escherichia coli cysteine desulfurase” (priority 2021, dated 2024).

Assay type in all cases: biochemical
Assay [1] concerns the target T1, E. coli cysteine desulfurase (Escherichia coli, UniProt P0A6B7, P222S).
T1 construct: C-terminal histidine stretch (HHHHHH); made in house; host or cells: E. coli (IscA-/SufA- double-deficient strain is mentioned in the summary)
The assay is described as follows: Anti-interference of the detection method for D-serine, cycloserine and serine derivatives.

In assay [2] the target is T1, E. coli cysteine desulfurase. The experiment in a line: Quantitative detection of L-serine, absorbance at 528 nm (reaction time and linear range). As to conditions: L-serine standard with reaction buffer, 25° C. As to the method: B. Reaction buffer: 40 mM Tris-HCl buffer (pH 9.0), 100 μM E. coli cysteine desulfurase, and 0.4 mM L-cysteine.
L-serine to be tested was mixed with the reaction buffer in equal volumes, and incubated at 25° ° C. for different times; the absorbance was measured at a wavelength of 528 nm; a curve was plotted with the time as the horizontal axis and the absorbance value at 528 nm as the longitudinal axis.
The L-serine standard solution was diluted to three concentrations, respectively: 0.50 mM, 1.00 mM, and 2.00 mM. Each serial dilution of the standard solution and the unknown sample (100 μL) were each mixed with 100 μL of reaction buffer, incubated at room temperature (25° C.) for 2 h, and the absorbance at 528 nm was measured for sample and standard tubes, respectively.
A standard curve was plotted with the concentration of the standard solution as the abscissa and the absorbance measured at a wavelength of 528 nm as the ordinate, and the curve was fitted to obtain a curve equation and an R^2 value.

Assay [3] has the same target. The experiment in a line: Determination of the ability to resist other L-amino acids (colour after incubation with enzyme). As to conditions: 4 mM amino acid, equal volume of enzyme, 37° C., 250 rpm, 2 h, naked eye.

On to `N[C@H](CO)C(=O)O` [D-serine], for which the “anti-interference ability of the detection method” value in assay [1] is on record as “good anti-interference ability”.
As for `N[C@@H](CO)C(=O)O` [L-serine], the “incubation time at which the absorption peak at 528 nm reaches the highest” value in assay [2] is recorded as 2 h. Besides, in assay [3], the “colour after incubation with E. coli cysteine desulfurase” value is on record as “red”.
For the molecule `N[C@@H]1CON=C1O` [cycloserine], in assay [1], the “anti-interference ability of the detection method” value is given as “good anti-interference ability”.
